One experiment deals with HCC1954. Kind of experiment: MTT growth inhibition assay, paclitaxel drug sensitivity. The experiment is classed as cell-based. The settings on record: Homo sapiens, HCC1954 breast cancer cells, 72 h treatment, read-out: paclitaxel inhibitor concentration 50 (IC50). Here is the method: (§1) The human breast cancer cell lines, including HCC1954, BT474, MCF7, MDA-MB-231, HCC1937 cells, and normal breast cell, Hs371T, were purchased from American Type Culture Collection (ATCC) and cultured at 37° C. in 5% CO2. HCC1954, BT474, and HCC1937 cells were grown in RPMI-1640 (Hyclone), and MCF7, MDA-MB-231, and Hs371T cells were cultured in DMEM (Cyclone). All complete media contained 10% fetal bovine serum (FBS, ThermoFisher Scientific), 100 U/mL penicillin, and 100 μg/mL streptomycin (Millipore Sigma).
(§2) Drug sensitivity was determined by the 3-(4, 5-dimethylthiazol-2-yl)-2, 5-diphenyl tetrazolium bromide (MTT) colorimetric assay. First, cells were counted with a hemocytometer, seeded in a 96-well plate, and cultured for 24 h. After that, cells were treated with paclitaxel for 72 h: paclitaxel (1.00E-06-10 µM). Subsequently, MTT dye (Sigma-Aldrich; Merck KGaA) at a final concentration of 0.5 mg/ml was added for 3 hours. This was followed by replacing the medium and dissolving the formazan crystals with DMSO. The optical density (OD; absorbance at 540 nm) was measured using a plate reader (Tecan). Data (mean±SD of at least three independent experiments performed in triplets) are presented as the relative proliferation as a function of time after seeding.
(§3) MTT assay was performed for each cell line to determine the paclitaxel inhibitor concentration 50 (IC50) in the six breast cancer cell lines included.
(Tetrazolium assays rely on reduction of a dye to a coloured formazan, in cell work by metabolically active cells.)

The next experiment relates to HCC1937. The experiment is described as above. Type of experiment: cell-based. The settings on record: Homo sapiens, HCC1937 breast cancer cells, 72 h treatment, read-out: paclitaxel inhibitor concentration 50 (IC50). Here is the method: as §1, §2, §3
The test system of a further experiment is MD-MB-231. The experiment is described as above. Type of experiment: cell-based. The settings on record: Homo sapiens, MD-MB-231 breast cancer cells, 72 h treatment, read-out: paclitaxel inhibitor concentration 50 (IC50). How it is done: as §1, §2, §3
In another experiment the test system is BT474. The experiment is described as above. The settings on record: Homo sapiens, BT-474, BT474 breast cancer cells, 72 h treatment, read-out: paclitaxel inhibitor concentration 50 (IC50). The experiment is classed as cell-based. Here is the method: as §1, §2, §3
The next experiment concerns HCC1954 REPX. Kind of experiment: MTT growth inhibition assay, paclitaxel-resistant subtype. The experiment is classed as cell-based, human. Here is the method:
To develop the paclitaxel resistance subtype, cells were continually exposed to stepwise increases in the concentration of paclitaxel over 16 to 18 weeks. Briefly, HCC1954 cells were seeded at a density of ˜5×10^5/mL in a T75 cell culture flask with 10 mL complete growth medium. After 4-6 hours of incubation, relatively low concentrations of paclitaxel (ranging from 1 to 150 nM) were added into the medium. Cells were left in paclitaxel for three days or until a stable cell re-population formed. Regular medium replenishment was performed throughout this period. The paclitaxel concentration was then increased by 0.5 to 2-fold. This stepwise dose escalation continued for 16 to 18 weeks until the paclitaxel concentration reached at least ten times the starting concentration. […]
Drug sensitivity was determined by the 3-(4, 5-dimethylthiazol-2-yl)-2, 5-diphenyl tetrazolium bromide (MTT) colorimetric assay. First, cells were counted with a hemocytometer, seeded in a 96-well plate, and cultured for 24 h. […] The optical density (OD; absorbance at 540 nm) was measured using a plate reader (Tecan). […]
To generate a resistance cell model in vitro (HCC1954 REPX), the HCC1954 cell line was treated with increasing concentrations of paclitaxel, and cell viability was re-evaluated after 18 weeks of treatment.

Each structure is given as a SMILES string.

Among the data in patent US20240240256A1, “MOLECULAR ANALYSIS OF EXTRACELLULAR VESICLES (EVs) FOR THE PREDICTION AND MONITORING OF DRUG RESISTANCE IN CANCER” (The General Hospital Corporation, priority 2023, published 2024) are IC50 and increase in paclitaxel-resistance values, retold here.

In the case of `CC(=O)O[C@H]1C(=O)[C@@]2(C)[C@H]([C@H](OC(=O)c3ccccc3)[C@]3(O)C[C@H](OC(=O)[C@H](O)[C@@H](NC(=O)c4ccccc4)c4ccccc4)C(C)=C1C3(C)C)[C@]1(OC(C)=O)CO[C@@H]1C[C@@H]2O` [paclitaxel, Paclitaxel], the IC50 turned out to be 14 nM in the experiment on HCC1954; 9900 nM in the experiment with HCC1937; 600 nM in the experiment on MD-MB-231; 100 nM in the experiment with BT474; 1800 nM in the experiment on HCC1954 REPX (Homo sapiens, HCC1954 REPX paclitaxel-resistant subtype, after 18 weeks of paclitaxel treatment, MTT). Moreover, the increase in paclitaxel-resistance with HCC1954 REPX (IC50 in HCC1954 REPX compared to parental HCC1954) stood at 128.57 fold.
